Data: PMC9090415, “Discovery of small molecule inhibitors of Plasmodium falciparum apicoplast DNA polymerase” (Journal of Enzyme Inhibition and Medicinal Chemistry, 2022)

Biological target: T1, bacteriophage T4 DNA polymerase (Enterobacteria phage T4, UniProt P04415)
T1 construct: made in house
T1 sequence (P04415 1-898): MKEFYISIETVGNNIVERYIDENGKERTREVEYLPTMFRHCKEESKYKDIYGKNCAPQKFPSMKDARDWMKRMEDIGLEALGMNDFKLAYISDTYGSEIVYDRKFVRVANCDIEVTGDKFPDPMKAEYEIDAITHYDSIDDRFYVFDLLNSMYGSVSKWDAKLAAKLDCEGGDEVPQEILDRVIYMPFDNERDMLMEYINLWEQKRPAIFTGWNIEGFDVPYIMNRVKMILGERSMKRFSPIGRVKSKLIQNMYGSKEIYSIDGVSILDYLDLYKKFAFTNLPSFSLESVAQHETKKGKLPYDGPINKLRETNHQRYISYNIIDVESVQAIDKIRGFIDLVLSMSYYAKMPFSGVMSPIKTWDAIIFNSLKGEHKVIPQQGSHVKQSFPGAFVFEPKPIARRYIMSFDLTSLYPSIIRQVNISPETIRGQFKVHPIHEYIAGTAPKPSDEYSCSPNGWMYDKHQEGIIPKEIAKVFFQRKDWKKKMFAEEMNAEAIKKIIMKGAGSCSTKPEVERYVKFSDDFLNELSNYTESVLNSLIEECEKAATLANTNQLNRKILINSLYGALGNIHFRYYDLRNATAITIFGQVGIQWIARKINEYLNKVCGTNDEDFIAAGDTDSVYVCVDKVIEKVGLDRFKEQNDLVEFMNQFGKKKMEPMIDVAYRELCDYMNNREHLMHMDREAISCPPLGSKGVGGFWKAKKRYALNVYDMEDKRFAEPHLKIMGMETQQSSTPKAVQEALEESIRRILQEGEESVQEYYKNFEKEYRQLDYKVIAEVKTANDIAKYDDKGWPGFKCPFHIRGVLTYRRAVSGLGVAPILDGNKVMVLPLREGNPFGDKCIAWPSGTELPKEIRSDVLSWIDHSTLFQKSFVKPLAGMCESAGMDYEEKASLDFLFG
Experiment: Counter-screen against bacteriophage T4 DNA polymerase
Assay type: biochemical
Conditions: for % inhibition T4 10' 2.5 / % inhibition T4 10' 5 / % inhibition T4 10' 10 / % inhibition T4 10' 20 / % inhibition T4 10' 40 / % inhibition T4 10' 80: read at 10'
Procedure, shortened: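 Purified T4 DNA polymerase, a B-family enzyme, served as the counter-screen enzyme. Compounds were tested in dose-response format and IC50 values were derived.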

O=C(Cc1cc(=O)[nH]c(SCc2ccccc2)n1)Nc1ccc2c(c1)OCO2 [Molecule 46, O=C(Cc1cc(=O)[nH]c(n1)SCc1ccccc1)Nc1ccc2c(c1)OCO2]
% inhibition T4 10' (DRC-2, concentration 2.5): -13%
% inhibition T4 10' (DRC-2, concentration 40): 9%
% inhibition T4 10' (DRC-2, concentration 80): 6%
% inhibition T4 40' (DRC-2, concentration 2.5): -13%
% inhibition T4 40' (DRC-2, concentration 40): 9%
% inhibition T4 40' (DRC-2, concentration 80): 6%
% inhibition T4 90' (DRC-2, concentration 10): 4%
% inhibition T4 90' (DRC-2, concentration 40): 9%
% inhibition T4 180' (DRC-2, 180', concentration 40): 4%

Cn1nc(-c2nnc(-c3ccccc3F)o2)c2c1CCN(C(=O)c1ccccc1Cl)C2 [Molecule 34, Cn1nc(c2c1CCN(C2)C(=O)c1ccccc1Cl)c1nnc(o1)c1ccccc1F]
% inhibition T4 10' 2.5 (DRC-1, concentration 2.5): -0.603%
% inhibition T4 10' 5 (DRC-1, concentration 5): -0.853%
% inhibition T4 10' 10 (DRC-1, concentration 10): 3%
% inhibition T4 10' 20 (DRC-1, concentration 20): 1.06%
% inhibition T4 10' 40 (DRC-1, concentration 40): 1.22%
% inhibition T4 10' 80 (DRC-1, concentration 80): 31%
% inhibition T4 70' 2.5 (DRC-1, read at 70', concentration 2.5): -2.57%
% inhibition T4 70' 5 (DRC-1, read at 70', concentration 5): -4%
% inhibition T4 70' 10 (DRC-1, read at 70', concentration 10): -2%
% inhibition T4 70' 20 (DRC-1, read at 70', concentration 20): -2.24%
% inhibition T4 70' 40 (DRC-1, read at 70', concentration 40): -0.925%
% inhibition T4 70' 80 (DRC-1, read at 70', concentration 80): 28%
% inhibition T4 130' 2.5 (DRC-1, read at 130', concentration 2.5): -4%
% inhibition T4 130' 5 (DRC-1, read at 130', concentration 5): -4%
% inhibition T4 130' 10 (DRC-1, read at 130', concentration 10): -2.33%
% inhibition T4 130' 20 (DRC-1, read at 130', concentration 20): -2.59%
% inhibition T4 130' 40 (DRC-1, read at 130', concentration 40): 0.922%
% inhibition T4 130' 80 (DRC-1, read at 130', concentration 80): 22%
% inhibition T4 10' 2.5 (DRC-2, concentration 2.5): 0.487%
% inhibition T4 10' 5 (DRC-2, concentration 5): -4%
% inhibition T4 10' 10 (DRC-2, concentration 10): -3%
% inhibition T4 10' 20 (DRC-2, concentration 20): 1.3%
% inhibition T4 10' 40 (DRC-2, concentration 40): 3.35%
% inhibition T4 10' 80 (DRC-2, concentration 80): 11%
% inhibition T4 40' 2.5 (DRC-2, read at 40', concentration 2.5): -0.945%
% inhibition T4 40' 5 (DRC-2, read at 40', concentration 5): -3.75%
% inhibition T4 40' 10 (DRC-2, read at 40', concentration 10): -3%
% inhibition T4 40' 20 (DRC-2, read at 40', concentration 20): 0.863%
% inhibition T4 40' 40 (DRC-2, read at 40', concentration 40): 3.24%
% inhibition T4 40' 80 (DRC-2, read at 40', concentration 80): 12%
% inhibition T4 90' 2.5 (DRC-2, read at 90', concentration 2.5): -0.872%
% inhibition T4 90' 5 (DRC-2, read at 90', concentration 5): -3.55%
% inhibition T4 90' 10 (DRC-2, read at 90', concentration 10): -2.12%
% inhibition T4 90' 20 (DRC-2, read at 90', concentration 20): 0.601%
% inhibition T4 90' 40 (DRC-2, read at 90', concentration 40): 1.62%
% inhibition T4 90' 80 (DRC-2, read at 90', concentration 80): 10%
% inhibition T4 180' 2.5 (DRC-2, read at 180', concentration 2.5): -4.68%
% inhibition T4 180' 5 (DRC-2, read at 180', concentration 5): -7.58%
% inhibition T4 180' 10 (DRC-2, read at 180', concentration 10): -5%
% inhibition T4 180' 20 (DRC-2, read at 180', concentration 20): -3.78%
% inhibition T4 180' 40 (DRC-2, read at 180', concentration 40): -2.41%
% inhibition T4 180' 80 (DRC-2, read at 180', concentration 80): 6%

Cc1ccc(NC(=O)C2CCN(C(=O)c3cc4ccsc4[nH]3)CC2)c(Br)c1 [Molecule 14, O=C(C1CCN(CC1)C(=O)c1cc2c([nH]1)scc2)Nc1ccc(cc1Br)C]
% inhibition T4 10' (DRC-2, concentration 20): 5%
% inhibition T4 10' (DRC-2, concentration 40): 10%
% inhibition T4 10' (DRC-2, concentration 80): 10%
% inhibition T4 40' (DRC-2, concentration 20): 5%
% inhibition T4 40' (DRC-2, concentration 40): 8%
% inhibition T4 40' (DRC-2, concentration 80): 10%
% inhibition T4 90' (DRC-2, concentration 40): 6%
% inhibition T4 90' (DRC-2, concentration 80): 8%
